The source made the active and inactive calls.
Assays:
[1] = biological target: T1, Mannose-6-phosphate isomerase (Homo sapiens, UniProt P34949); test: PMI enzyme inhibitors, confirmation, biochemical, fluorescence intensity (AID 1535)
T1 sequence (P34949 whole entry): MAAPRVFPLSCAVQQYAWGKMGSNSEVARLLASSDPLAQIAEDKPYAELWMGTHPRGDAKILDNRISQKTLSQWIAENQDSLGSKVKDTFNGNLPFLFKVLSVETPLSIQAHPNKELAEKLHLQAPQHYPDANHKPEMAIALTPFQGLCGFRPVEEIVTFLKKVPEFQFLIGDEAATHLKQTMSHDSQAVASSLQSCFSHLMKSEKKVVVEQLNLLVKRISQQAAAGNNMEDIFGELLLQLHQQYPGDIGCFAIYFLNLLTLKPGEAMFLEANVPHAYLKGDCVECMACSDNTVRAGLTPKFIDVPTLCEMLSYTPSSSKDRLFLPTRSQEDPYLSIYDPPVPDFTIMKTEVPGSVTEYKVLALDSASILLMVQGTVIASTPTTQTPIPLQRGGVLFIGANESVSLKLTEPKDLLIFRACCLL

Exodeoxyribonuclease V = biological target: T2, Exodeoxyribonuclease V (Escherichia coli (strain K12), UniProt P04993+P07648+P08394); test: E. coli RecBCD inhibitors, dose response, counter-screen for AddAB inhibitor project, absorbance, V66 E. coli, mutant T4 phage (AID 492957); type: functional, cell-based, Escherichia coli str. K-12 substr. MG1655
T2 sequence (P04993 whole entry): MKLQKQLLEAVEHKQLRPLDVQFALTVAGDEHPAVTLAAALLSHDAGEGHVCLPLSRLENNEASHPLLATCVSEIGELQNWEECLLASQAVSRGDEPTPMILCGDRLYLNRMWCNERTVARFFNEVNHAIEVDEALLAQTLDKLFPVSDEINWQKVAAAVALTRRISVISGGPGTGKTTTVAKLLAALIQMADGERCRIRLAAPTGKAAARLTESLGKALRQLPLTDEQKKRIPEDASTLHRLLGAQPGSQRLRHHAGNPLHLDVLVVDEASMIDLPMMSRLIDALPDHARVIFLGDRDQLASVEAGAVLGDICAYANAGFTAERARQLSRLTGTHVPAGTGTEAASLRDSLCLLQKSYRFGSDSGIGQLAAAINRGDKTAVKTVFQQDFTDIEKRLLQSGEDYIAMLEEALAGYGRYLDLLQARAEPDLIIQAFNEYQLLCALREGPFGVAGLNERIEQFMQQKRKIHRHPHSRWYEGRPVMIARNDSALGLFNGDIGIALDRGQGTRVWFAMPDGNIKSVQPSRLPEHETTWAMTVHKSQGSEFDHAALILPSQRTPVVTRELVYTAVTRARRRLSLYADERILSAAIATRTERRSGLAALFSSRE
T2 sequence (P07648 whole entry): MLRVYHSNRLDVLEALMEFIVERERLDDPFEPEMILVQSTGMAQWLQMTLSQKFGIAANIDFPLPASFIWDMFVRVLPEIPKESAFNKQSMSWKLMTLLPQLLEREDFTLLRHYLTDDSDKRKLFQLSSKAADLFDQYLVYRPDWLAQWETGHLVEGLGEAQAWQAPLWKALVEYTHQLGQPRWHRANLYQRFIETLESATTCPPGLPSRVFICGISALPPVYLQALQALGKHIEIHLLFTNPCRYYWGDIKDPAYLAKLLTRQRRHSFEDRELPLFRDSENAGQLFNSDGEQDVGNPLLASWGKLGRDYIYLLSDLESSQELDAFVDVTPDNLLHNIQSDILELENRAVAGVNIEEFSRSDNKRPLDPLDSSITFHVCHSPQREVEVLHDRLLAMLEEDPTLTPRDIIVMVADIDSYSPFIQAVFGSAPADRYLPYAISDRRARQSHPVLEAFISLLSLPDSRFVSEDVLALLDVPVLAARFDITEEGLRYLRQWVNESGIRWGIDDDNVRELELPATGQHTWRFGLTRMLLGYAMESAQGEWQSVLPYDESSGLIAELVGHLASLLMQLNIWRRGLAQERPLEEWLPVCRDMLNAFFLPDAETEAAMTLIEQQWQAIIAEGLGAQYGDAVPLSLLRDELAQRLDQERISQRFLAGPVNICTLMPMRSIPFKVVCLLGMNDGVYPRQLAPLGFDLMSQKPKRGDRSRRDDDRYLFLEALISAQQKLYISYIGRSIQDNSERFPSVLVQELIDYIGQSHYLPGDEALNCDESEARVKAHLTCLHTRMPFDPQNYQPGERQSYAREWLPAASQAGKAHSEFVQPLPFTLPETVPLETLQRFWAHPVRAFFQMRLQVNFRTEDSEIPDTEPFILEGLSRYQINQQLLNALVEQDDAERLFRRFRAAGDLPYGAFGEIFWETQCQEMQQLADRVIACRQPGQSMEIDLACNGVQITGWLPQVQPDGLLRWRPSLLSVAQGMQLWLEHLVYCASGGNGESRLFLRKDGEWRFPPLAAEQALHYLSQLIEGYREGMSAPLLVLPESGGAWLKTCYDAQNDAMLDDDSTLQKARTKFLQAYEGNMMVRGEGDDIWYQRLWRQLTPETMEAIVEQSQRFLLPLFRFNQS
T2 sequence (P08394 whole entry): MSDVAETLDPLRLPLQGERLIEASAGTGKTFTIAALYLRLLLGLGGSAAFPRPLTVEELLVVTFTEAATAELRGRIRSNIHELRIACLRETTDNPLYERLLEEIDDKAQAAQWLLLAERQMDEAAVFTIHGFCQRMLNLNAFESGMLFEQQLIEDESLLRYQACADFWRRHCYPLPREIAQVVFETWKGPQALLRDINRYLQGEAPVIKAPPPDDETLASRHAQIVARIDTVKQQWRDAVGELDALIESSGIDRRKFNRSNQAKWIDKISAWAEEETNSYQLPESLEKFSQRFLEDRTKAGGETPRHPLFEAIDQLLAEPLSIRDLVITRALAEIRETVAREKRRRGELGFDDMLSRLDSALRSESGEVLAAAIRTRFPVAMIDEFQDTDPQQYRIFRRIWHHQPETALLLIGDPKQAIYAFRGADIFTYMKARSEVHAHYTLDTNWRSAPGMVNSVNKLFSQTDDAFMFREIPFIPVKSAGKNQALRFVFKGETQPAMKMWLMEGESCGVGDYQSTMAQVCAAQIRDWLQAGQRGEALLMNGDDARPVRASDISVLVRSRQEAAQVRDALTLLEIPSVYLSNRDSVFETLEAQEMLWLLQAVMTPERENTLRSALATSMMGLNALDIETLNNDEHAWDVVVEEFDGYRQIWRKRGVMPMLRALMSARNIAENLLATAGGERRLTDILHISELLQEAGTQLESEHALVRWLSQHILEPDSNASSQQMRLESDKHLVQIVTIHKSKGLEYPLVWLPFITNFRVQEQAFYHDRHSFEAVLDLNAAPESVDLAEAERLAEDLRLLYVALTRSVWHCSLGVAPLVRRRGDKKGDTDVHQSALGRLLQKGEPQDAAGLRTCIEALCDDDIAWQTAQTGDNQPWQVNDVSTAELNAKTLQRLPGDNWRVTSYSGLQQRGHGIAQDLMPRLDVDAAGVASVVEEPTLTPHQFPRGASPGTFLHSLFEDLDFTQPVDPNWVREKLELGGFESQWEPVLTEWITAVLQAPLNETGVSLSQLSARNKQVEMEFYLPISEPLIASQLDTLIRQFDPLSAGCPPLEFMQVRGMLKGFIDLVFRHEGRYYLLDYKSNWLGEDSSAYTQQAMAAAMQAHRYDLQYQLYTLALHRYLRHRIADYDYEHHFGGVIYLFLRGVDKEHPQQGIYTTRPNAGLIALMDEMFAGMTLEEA

[2] = C. albicans growth with fluconazole, confirmation, fluorescence, retest (AID 2467); type: functional, cell-based
[3] = Luminescence Cell-Based Dose Retest to Confirm Inhibitors of Cancer Stem Cells. [Related pubchem assays (depositor defined):AID2717, AID2721]; type: functional; details: Homo sapiens
[4] = NIH-3T3 fibroblast cytotoxicity, dose response, cytotoxicity control, cell-based, fluorescence, Alamar Blue, secondary assay (AID 2327); type: functional;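 also: NIH-3T3 mouse fibroblasts cultured with fluconazole at 8 µg/mL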
[5] = Counterscreen for AddAB inhibitors: absorbance-based bacterial cell-based high throughput dose response assay for inhibitors of bacterial viability. [Related pubchem assays (depositor defined):AID435030, AID449728, AID449731, AID488942, AID488955, AID488956]; type: functional
Phosphomannomutase 2 = biological target: T3, Phosphomannomutase 2 (Homo sapiens, UniProt O15305); test: Counter screen SAR assay for PMM2 inhibitors via a fluorescence intensity assay. [Related pubchem assays (depositor defined):AID1545, AID1574]
T3 sequence (O15305 whole entry): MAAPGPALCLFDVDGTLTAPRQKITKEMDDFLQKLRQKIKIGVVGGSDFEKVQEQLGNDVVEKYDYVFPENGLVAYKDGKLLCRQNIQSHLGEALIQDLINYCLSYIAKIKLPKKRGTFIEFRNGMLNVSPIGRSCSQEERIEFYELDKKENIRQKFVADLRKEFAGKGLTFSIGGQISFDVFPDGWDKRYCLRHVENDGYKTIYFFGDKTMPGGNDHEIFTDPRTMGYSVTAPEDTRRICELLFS

[6] = biological target: T4, Alkaline phosphatase, tissue-nonspecific isozyme (Homo sapiens, UniProt P05186); test: TNAP enzyme activators, dose response, selectivity assay for human IAP activator project, biochemical, TNAP isozyme, human IAP uHTS hits (AID 488886); type: functional;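 also: potency of compounds raising TNAP activity as a selectivity check on IAP activators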
T4 sequence (P05186 whole entry): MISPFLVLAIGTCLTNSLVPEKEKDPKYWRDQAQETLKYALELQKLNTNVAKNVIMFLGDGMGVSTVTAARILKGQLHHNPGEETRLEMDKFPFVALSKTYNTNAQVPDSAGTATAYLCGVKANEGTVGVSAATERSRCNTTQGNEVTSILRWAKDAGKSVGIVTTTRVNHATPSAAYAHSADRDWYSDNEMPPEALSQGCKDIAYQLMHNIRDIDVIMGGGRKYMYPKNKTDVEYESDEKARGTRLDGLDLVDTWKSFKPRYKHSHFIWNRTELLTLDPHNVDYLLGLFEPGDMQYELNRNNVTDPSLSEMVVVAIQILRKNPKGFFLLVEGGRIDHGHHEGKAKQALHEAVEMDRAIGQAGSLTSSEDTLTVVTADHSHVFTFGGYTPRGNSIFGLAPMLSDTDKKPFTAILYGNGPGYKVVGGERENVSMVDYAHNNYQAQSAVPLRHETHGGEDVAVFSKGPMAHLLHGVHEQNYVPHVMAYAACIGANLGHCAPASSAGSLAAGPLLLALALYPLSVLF

[7] = biological target: T5, Intestinal-type alkaline phosphatase (Homo sapiens, UniProt P09923); test: human intestinal alkaline phosphatase activators, dose response, biochemical, luminescence, uHTS hits (AID 463120); type: functional
T5 sequence (P09923 whole entry): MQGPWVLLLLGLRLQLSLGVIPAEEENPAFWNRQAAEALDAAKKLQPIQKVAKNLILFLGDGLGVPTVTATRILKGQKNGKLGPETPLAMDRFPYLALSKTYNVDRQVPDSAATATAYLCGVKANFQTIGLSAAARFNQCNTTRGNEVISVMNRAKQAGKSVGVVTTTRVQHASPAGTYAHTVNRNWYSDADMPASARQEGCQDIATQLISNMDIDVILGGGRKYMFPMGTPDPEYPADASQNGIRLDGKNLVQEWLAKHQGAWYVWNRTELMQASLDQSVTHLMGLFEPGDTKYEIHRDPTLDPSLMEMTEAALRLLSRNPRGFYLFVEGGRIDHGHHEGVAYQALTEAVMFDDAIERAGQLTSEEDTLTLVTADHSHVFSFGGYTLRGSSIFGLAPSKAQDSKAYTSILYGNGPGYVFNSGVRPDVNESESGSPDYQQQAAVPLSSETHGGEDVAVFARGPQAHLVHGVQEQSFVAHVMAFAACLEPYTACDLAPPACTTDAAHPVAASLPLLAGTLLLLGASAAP

[8] = biological target: Intestinal-type alkaline phosphatase (Mus musculus, UniProt P24822); test: PubChem AID 488874; type: functional
Intestinal-type alkaline phosphatase (Mus musculus, UniProt P24822), sequence (P24822 whole entry): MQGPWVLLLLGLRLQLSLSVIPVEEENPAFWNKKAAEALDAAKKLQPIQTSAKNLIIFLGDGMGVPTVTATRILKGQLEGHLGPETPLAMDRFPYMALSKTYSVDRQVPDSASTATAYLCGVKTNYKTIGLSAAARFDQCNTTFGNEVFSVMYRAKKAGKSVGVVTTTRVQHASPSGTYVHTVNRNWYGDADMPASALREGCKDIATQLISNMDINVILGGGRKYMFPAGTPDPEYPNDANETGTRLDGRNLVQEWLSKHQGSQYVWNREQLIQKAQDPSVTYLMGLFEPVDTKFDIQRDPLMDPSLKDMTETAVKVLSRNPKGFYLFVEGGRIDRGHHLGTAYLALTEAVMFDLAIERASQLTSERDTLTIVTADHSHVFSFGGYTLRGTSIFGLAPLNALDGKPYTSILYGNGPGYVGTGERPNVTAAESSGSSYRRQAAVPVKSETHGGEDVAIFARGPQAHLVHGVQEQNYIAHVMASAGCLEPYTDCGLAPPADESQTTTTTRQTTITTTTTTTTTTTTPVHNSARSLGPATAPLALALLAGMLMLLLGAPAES

[9] = biological target: T5, Intestinal-type alkaline phosphatase; test: human IAP activators, dose response, biochemical, luminescent, uHTS hits, set 2 (AID 488817); type: functional;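 also: potency of activators that raise enzyme activity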
[10] = biological target: T6, RNA-binding protein pos-1 (Caenorhabditis elegans, UniProt G5EF15); test: inhibitors of POS-1/mex-3 RNA binding, dose response, biochemical, fluorescence polarization (AID 1964);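 also: purified POS-1 fused to maltose binding protein made in E. coli; potency of compounds blocking POS-1 binding to fluorescent RNA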
T6 sequence (G5EF15 whole entry): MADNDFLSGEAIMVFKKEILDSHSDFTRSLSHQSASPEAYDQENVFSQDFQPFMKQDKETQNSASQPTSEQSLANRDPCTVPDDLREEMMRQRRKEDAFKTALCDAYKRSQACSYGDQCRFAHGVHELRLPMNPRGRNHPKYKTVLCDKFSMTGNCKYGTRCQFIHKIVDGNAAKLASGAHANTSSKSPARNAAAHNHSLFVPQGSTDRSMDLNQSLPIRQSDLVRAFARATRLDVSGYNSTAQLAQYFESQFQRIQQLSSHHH

[11] = biological target: T7, Zinc finger protein mex-5 (Caenorhabditis elegans, UniProt Q9XUB2); test: MEX-5/TCR-2 RNA interaction inhibitors, dose response, biochemical, C. elegans, fluorescence polarization (AID 1960)
T7 sequence (Q9XUB2 whole entry): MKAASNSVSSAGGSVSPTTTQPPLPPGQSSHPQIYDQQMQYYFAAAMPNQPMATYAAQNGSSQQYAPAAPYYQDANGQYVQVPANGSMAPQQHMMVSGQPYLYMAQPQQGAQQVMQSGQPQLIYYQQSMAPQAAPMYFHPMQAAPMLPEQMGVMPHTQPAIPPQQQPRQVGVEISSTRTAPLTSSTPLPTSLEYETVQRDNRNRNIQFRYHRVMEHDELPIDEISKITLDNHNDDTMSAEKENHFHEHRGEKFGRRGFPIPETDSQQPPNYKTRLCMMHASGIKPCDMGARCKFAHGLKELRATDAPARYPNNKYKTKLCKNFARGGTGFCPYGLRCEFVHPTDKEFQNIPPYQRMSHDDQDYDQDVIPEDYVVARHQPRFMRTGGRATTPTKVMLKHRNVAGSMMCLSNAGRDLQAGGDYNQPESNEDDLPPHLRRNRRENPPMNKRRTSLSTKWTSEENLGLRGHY

Albumin = Albumin (Bos taurus, UniProt P02769); test: Counterscreen for inhibitors of T-cell receptor (TCR)-CD3 interaction: Fluorescence-based biochemical high throughput dose response assay to identify inhibitors of T-cell receptor (TCR)-CD3 interaction using a TAMRA-labeled BSA probe.; type: functional
Albumin, sequence (P02769 whole entry): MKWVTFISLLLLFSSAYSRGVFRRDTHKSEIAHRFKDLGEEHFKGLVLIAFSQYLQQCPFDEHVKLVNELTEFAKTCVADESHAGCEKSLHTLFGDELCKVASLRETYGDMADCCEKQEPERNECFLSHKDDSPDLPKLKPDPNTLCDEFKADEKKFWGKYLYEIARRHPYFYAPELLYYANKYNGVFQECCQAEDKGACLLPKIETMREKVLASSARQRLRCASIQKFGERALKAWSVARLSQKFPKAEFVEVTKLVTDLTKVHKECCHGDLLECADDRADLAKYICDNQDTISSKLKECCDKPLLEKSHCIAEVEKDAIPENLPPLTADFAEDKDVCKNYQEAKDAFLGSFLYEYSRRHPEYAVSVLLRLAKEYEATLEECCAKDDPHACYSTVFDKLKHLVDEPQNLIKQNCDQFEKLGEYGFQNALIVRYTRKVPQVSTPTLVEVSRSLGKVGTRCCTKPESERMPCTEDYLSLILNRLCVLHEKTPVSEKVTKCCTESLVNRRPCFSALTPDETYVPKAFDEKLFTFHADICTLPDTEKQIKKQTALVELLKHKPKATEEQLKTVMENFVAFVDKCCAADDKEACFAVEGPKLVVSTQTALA
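For AC50 in this document: cells exposed to compound for roughly 70 hours or longer before luminescence read.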

Compound	IC50 [1]	IC50 (Exodeoxyribonuclease V)	IC50 [5]	EC50 [6]	EC50 [7]	IC50 [8]	EC50 [9]	also measured
Clc1nss/c1=N\c1ccccn1	> 100 µM (inactive)	–	–	–	–	–	–	–
O=C1c2ccccc2NC(c2ccc(-c3cccc(Cl)c3)o2)N1O (stereo unspecified)	–	> 119 µM (inactive)	> 119 µM (inactive)	–	–	–	–	EC50 [2]: 1.91 µM (active); AC50 [3]: 4.45 µM (active); EC50 [4]: 33.4 µM (active)
Cc1ccc(/N=c2\ssnc2Cl)cc1C	26.1 µM (active)	–	–	–	–	–	–	IC50 (Phosphomannomutase 2): 95.4 µM (active)
Cc1nc2c3ccccc3nc(NNC(=O)CCC(=O)N3CCCC(C)C3)n2n1 (stereo unspecified)	–	–	–	12.2 µM (active)	8.07 µM (active)	64.2 µM (active)	10.7 µM (active)	EC50 [10]: > 300 µM (not active); EC50 [11]: 21 µM (active)
CCNc1c([N+](=O)[O-])c(=O)oc2ccccc12	–	> 119 µM (inactive)	> 119 µM (inactive)	–	–	–	–	–
O=Nc1nc(O)c(/C=C(\O)c2ccccc2)nc1NO	–	–	–	> 100 µM (inactive)	8.21 µM (active)	35.5 µM (active)	8.77 µM (active)	IC50 (Albumin): > 94.2 µM (inactive)
